Values joined by “and” are separate entries in the source; they are usually repeats but may differ in a detail not shown here. Identical values can stand only once. “Also recorded” adds a separate entry of the source. Like-named read-outs stand apart in the source and are kept apart here.
How the values were obtained:
[1] = test system: HEK293T Tau RD P301S FRET biosensor cells; assay: Tau biosensor cells seeded with AD brain synaptosomal (P2) extract, FRET signal; format: cell-based; settings: 10 μM, imaged after 24 hrs, vs DMSO
Description: Brain autopsy samples were obtained from the University of California Irvine, University of Southern California AD Research Centers, and University of California, Los Angeles. Brain tissue was cryopreserved and synaptosomal fractions (P2-fractions, or P2) were prepared as previously described. In order to prepare P2-extracts, aliquots were quickly defrosted at 37° C. and centrifuged at 10,000×g for 10 min at 4° C. to remove P2 from sucrose. After aspirating the supernatant, cold PBS was added to each sample in Ma 1:5 weight/volume ratio. Samples were then sonicated in 10-second intervals three times, incubated on ice for 30 min and centrifuged at 20,000 g for 20 min at 4° C. P2 extracts were collected and stored at −80° C. Tau biosensor cell treatment and analysis. HEK293T Tau RD P301S FRET biosensor cells (tau biosensors) were growing in the Dulbecco's Modified Eagle's medium (DMEM) with higher glucose, 10% FBS, and 1% Penicillin-streptomycin at 37° C./5% CO2. Cells were plated in 10-sm dishes (3 million cells per dish in the regular medium) and grown for 12 hrs. Cells were transduced with pulled synaptosomal (P2) extracts from AD cases using lipofectamine 2000. […]
Cells were imaged after 24 hrs using automated microscope imaging system (Lionheart FX) equipped with 20× objective and CFP-YFP FRET Image filter cube. […] FRET signal was detected using LSRII flow cytometer (BD biosciences). […]

[2] = test system: HEK293T Tau RD P301S FRET biosensor (tau biosensor) cells; assay: EV-mediated tau seed transfer (EMT) assay; format: cell-based
Description: HEK293T Tau RD P301S FRET biosensor (tau biosensor) cells were grown in Dulbecco's Modified Eagle's medium (DMEM) with high glucose, 10% FBS, and 1% Penicillin-streptomycin at 37° C./5% CO2. The lead inhibitors were tested in functional tau propagation “D+R” (Donors plus Recipients) and EMT (EV-mediated transfer) assays using the tau biosensors. Briefly, tau aggregation in donor cells (D) was induced by transfection of tau biosensor cells with human AD brain derived synaptosomal extracts (35 μg of synaptosomal fraction for 5 million cells in one 10 cm dish); control cells were treated with corresponding amount of transfection reagent lipofectamine 2000. After 24 hr incubation, the cells were trypsinized and plated together with DID-labeled recipient cells (R) in a 1:1 ratio in 96-well plates (15,000 of each cell type per well) for D+R assay or 1.5 million of donor cells per well in 6-well plates for EMT assay. Tested compounds or a corresponding amount of DMSO (0.2%) was added to the cell culture medium, DMEM, which contained 10% of exosome-depleted FBS (ThermoFisher, A2720803). Four technical replicates were used for each experimental condition. The inhibitors were tested at 20 μM concentration. In 48 hours 50 μL of culture medium per well were collected for cell viability test (Cytotox 96 non-radioactive cytotoxicity assay, Promega Corp., Madison, Wis.). The cells in D+R assay were harvested at the 48 hr time point and fixed with 2% paraformaldehyde for flow cytometry analysis according to published protocol. Tau seed transfer from donor to recipient cells results in FRET signal generation in the DID-positive recipient cells, which was measured by flow cytometry. Integrated FRET density was calculated in the top 30% of DID-positive cell based on DID signal intensity.
For the EMT assay, cell culture medium from donor cells growing for 48 hours with the compounds at concentrations of 20 μM or a corresponding amount of DMSO (0.2%), was collected and EVs were purified using the ExoQuick-TC kit (SBI biosciences) according to the manufacturer's instructions. Naïve recipient cells were plated in 96 well plates at a density of 20,000 cells per well in exosome-free medium and transfected with donor cell-derived exosomes at 12 hrs. The recipient cells were harvested 60 hours after transfection and FRET signals were analyzed using flow cytometry.
An Attune NxT Flow Cytometer (Invitrogen) equipped with an autosampler and FRET-compatible laser lines and filter sets was used for FRET signal detection. […] Flow cytometry data was analyzed using FCS Express version 5 software (DeNovo Software California, USA). Integrated FRET density was calculated as a product of percentage FRET positive cells and median of fluorescent intensity of the FRET positive cells as previously established.

[3] = test system: HEK293T Tau RD P301S FRET biosensor (tau biosensor) cells; assay: EV-mediated tau seed transfer (EMT) assay; format: cell-based; settings: 20 μM
[4] = test system: Tau P301S (PS19 line) tauopathy mouse model; assay: Rapid in vivo assay: IL1β-induced brain EV release; parameters: species or system mice
[5] = Parallel artificial membrane permeability (IAM column) prediction of CNS permeability; format: in vitro ADME
Description: To predict the potential for brain permeability, a Regis Technologies analytical column connected to an Agilent HPLC system (Infinity 1260 quaternary pump and multiple wavelength detector; 1200 autosampler) was used. An IAM.PC.DD column was (4.6 mm i.d.×10 cm, particle size 5 μm; pore size 300 Å) conditioned with 20 column volumes of mobile phase or until a stable line was achieved. A mobile phase with a consistent flow rate of 1 mL/min was used comprising 100 mM Na2PO4 (solvent A) and acetonitrile (solvent B); compounds were eluted using a gradient (min/% B: 0/30, 10/60, 11/30, 15/30). Detector settings were 220, 250 and 280 nm and acquisition time was 15 min. The autosampler injected 10 μL of compound at 2 mM final, diluted from 10 mM in DMSO in 70:30 (water:acetonitrile). After elution, compound retention and void volume times were obtained from the chromatogram. The IAM capacity factor: (KIAM) was calculated using the equation: […]
where tr is the retention time of a compound and t0 is the void volume time of the column. To predict CNS permeability, we used the correlation described by the formula below.

Human AChE = biological target: T1, Human AChE (Homo sapiens, UniProt P22303); assay: biochemical; settings: IC50 AChE
T1 construct: purchased Sigma
T1 sequence (P22303 32-614): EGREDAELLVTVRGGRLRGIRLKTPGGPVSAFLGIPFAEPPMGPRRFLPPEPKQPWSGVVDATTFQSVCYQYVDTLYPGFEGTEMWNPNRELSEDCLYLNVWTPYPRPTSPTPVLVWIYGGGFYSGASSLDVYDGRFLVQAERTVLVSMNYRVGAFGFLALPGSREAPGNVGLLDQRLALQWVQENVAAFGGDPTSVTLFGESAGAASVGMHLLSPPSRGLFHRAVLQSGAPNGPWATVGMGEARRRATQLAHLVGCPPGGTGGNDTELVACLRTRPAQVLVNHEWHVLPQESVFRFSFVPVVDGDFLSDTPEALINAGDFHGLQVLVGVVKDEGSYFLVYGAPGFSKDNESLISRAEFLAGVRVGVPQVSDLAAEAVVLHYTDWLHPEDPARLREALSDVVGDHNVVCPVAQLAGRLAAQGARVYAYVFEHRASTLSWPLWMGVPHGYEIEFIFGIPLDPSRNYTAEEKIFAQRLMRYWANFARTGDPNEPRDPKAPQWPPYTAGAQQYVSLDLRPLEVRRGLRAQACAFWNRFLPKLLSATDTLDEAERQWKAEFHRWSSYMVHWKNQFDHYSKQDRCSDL
Description: This acetylcholinesterase (AChE) assay is based on an Amplex Red assay kit (Thermo Fisher A12217). Human AChE (Sigma) was used. Briefly, 5 μL of compounds at the desired concentration were loaded into wells of a 384-well plate. Then, 5 μl of human AChE (30 mU/mL) was loaded into each well, followed by the addition of 10 μL of the working solution which contains 400 μM Amplex Red reagent, 2 U/mL HRP, 0.2 U/mL choline oxidase, and 100 μM acetylcholine. The reaction was monitored for 60 minutes and read at 530/590 nm. AChE IC50 was determined by plotting AChE activity as a percentage of DMSO control using GraphPad Prism software.

[6] = test system: HEK293T Tau RD P301S FRET biosensor (tau biosensor) cells; assay: Donor plus Recipient (D+R) tau propagation assay; format: cell-based; settings: 20 μM, 48 hrs
Description: HEK293T Tau RD P301S FRET biosensor (tau biosensor) cells were grown in Dulbecco's Modified Eagle's medium (DMEM) with high glucose, 10% FBS, and 1% Penicillin-streptomycin at 37° C./5% CO2. The lead inhibitors were tested in functional tau propagation “D+R” (Donors plus Recipients) and EMT (EV-mediated transfer) assays using the tau biosensors. Briefly, tau aggregation in donor cells (D) was induced by transfection of tau biosensor cells with human AD brain derived synaptosomal extracts (35 μg of synaptosomal fraction for 5 million cells in one 10 cm dish); control cells were treated with corresponding amount of transfection reagent lipofectamine 2000. After 24 hr incubation, the cells were trypsinized and plated together with DID-labeled recipient cells (R) in a 1:1 ratio in 96-well plates (15,000 of each cell type per well) for D+R assay or 1.5 million of donor cells per well in 6-well plates for EMT assay. Tested compounds or a corresponding amount of DMSO (0.2%) was added to the cell culture medium, DMEM, which contained 10% of exosome-depleted FBS (ThermoFisher, A2720803). Four technical replicates were used for each experimental condition. The inhibitors were tested at 20 μM concentration. […] Tau seed transfer from donor to recipient cells results in FRET signal generation in the DID-positive recipient cells, which was measured by flow cytometry. Integrated FRET density was calculated in the top 30% of DID-positive cell based on DID signal intensity.
An Attune NxT Flow Cytometer (Invitrogen) equipped with an autosampler and FRET-compatible laser lines and filter sets was used for FRET signal detection. The FRET (CFP/YFP) signal was excited by a 405 nm laser for CFP excitation and detected in the YFP image detection channel. Flow cytometry data was analyzed using FCS Express version 5 software (DeNovo Software California, USA). Integrated FRET density was calculated as a product of percentage FRET positive cells and median of fluorescent intensity of the FRET positive cells as previously established.

[7] = Brain pharmacokinetic analysis after SQ dosing
Description: Pharmacokinetic (PK) analysis on the leads 8 and 11 to determine brain permeability using wild type mice was performed. The compounds were subcutaneously (SQ) injected at a dose of 20 mg per kg of body weight (mpk). Brain and plasma samples were collected 1, 2, and 4 hours after dosing.

[8] = biological target: human serum albumin (HSA) (Homo sapiens, UniProt P02768); assay: Binding to human serum albumin (HSA); settings: for fraction unbound: human, human serum albumin
human serum albumin (HSA), sequence (P02768 25-609): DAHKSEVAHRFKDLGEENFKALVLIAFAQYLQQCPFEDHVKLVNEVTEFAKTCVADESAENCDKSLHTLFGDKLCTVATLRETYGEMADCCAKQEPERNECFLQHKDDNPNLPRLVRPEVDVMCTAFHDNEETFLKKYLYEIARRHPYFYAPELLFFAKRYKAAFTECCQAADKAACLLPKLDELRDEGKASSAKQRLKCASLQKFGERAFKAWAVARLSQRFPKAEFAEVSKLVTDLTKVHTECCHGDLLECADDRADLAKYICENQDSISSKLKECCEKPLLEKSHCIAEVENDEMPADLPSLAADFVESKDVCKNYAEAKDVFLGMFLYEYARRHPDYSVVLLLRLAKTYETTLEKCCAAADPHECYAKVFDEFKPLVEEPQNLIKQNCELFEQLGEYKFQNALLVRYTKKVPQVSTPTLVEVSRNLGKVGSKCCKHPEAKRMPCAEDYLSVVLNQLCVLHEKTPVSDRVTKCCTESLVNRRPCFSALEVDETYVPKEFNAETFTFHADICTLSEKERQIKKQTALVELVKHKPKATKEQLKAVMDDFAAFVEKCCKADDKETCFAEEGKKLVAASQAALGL

human nSMase2 = biological target: T2, human nSMase2 (Homo sapiens, UniProt Q9NY59); assay: biochemical; format: biochemical; settings: IC50 nSMase2
T2 construct: expressed in transfected cells; host or cells: HEK293T
T2 sequence (Q9NY59 1-655): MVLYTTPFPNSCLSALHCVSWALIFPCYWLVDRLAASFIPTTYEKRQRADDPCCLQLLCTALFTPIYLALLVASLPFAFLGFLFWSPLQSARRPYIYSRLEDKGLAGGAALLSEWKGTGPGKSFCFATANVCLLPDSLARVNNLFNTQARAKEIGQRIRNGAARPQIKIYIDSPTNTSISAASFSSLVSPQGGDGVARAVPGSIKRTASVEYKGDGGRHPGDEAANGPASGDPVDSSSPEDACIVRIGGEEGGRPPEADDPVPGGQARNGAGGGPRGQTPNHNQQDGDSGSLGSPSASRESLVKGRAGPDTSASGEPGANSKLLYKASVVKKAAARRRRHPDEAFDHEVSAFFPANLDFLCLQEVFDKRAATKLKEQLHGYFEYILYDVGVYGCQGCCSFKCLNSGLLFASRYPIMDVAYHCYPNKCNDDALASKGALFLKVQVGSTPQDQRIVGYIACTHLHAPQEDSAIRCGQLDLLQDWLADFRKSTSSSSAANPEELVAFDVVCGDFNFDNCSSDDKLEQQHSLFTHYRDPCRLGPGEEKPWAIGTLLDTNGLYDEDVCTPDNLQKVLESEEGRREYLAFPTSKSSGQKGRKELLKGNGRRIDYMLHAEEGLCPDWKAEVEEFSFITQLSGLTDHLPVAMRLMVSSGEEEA
Description: To evaluate nSMase2 inhibitory activity of tested compounds, cell lysates from HEK293T cells over-expressing human nSMase2 were used as the source of the nSMase2 enzyme. The Amplex Red Sphingomyelinase activity assay was performed according to previously a described protocol^1. Confluent cells were washed with PBS and harvested with lysis buffer [100 mM Tris-HCl pH 7.5, 100 mM sucrose, 100 μM PMSF, 1× protease inhibitor cocktail] using a cell scraper, and then sonicated 3 times on ice for 10 sec and centrifuged at 10,000×g for 10 min at 4° C. to remove remaining cell debris. An initial screening of a compound library was performed using 50 μM compound concentrations. In secondary testing, selected compounds were analyzed at multiple compound concentrations and plotted as a percentage of DMSO control; dose-response curves were generated to determine IC50s using GraphPad Prism software (GraphPad Software, La Jolla Calif.). […] Activity of the enzyme in the presence of the different concentrations of the inhibitors was plotted against substrate concentration and the maximal rate of the enzymatic reaction (Vmax) and Michaelis constant were calculated using GraphPad Prism.

SMILES: O=c1[nH]c(=S)[nH]c(-c2ccccc2)c1Cc1c(O)ccc2ccccc12 [DDL-112, cambinol]
- amount of FRET-positive tau aggregates (microscopy) [1]: visibly decreased

SMILES: CN1c2ccc(OC(=O)Nc3ccncc3)cc2[C@]2(C)CCO[C@H]12 [Compound 8]
- tau seed transfer from donor to recipient cells, EMT assay ([2]; 20 μM, donor cells 48 hrs): suppress tau propagation; also recorded: significantly suppresses
- EV size distribution of donor-derived EVs (TRPS) [3]: did not affect
- concentrations of exosomal-type small EVs from donor cells [3]: decreased
- levels of exosomal markers CD63, CD81, and syntenin-1 in donor EVs ([3]; vs DMSO control): reduced
- IL1β-induced tau release by exosomes ([4]; 20 mg/kg SQ): less effective
- IL1β-induced brain EV / exosomal release (small EV concentration, TRPS) ([4]; mouse, in vivo, 20 mg/kg): didn't induce the same level of suppression
- CNS perm (PAMPA) ([5]; PAMPA, 2 mM): 1.9
- IC50 (Human AChE): 6 µM
- tau seed transfer from donor to recipient cells, D+R assay [6]: suppress tau propagation; also recorded: significantly suppresses
- brain penetration (compound levels in brain tissue, LC-MS/MS) ([7]; mice, 20 mg/kg SQ): penetrated the brain
- concentration at 1 h ([7]; mouse, in vivo, 20 mg/kg): 61 ng/g and ~200 nM
- time of peak brain levels after SQ dosing ([7]; wild type mice, 20 mg/kg SQ): around one
- degree of binding to human serum albumin (HSA) [8]: low degree of binding
- fraction unbound [8]: 0.28

SMILES: CCN(C)C(=O)Oc1cccc([C@H](C)N(C)C)c1 [rivastigmine, reference compound]
- EV-mediated transfer from donor to recipient cells ([2]; preliminary experiments, data not shown): may partially suppress

SMILES: Cc1cc(C)cc(NC(=O)Oc2ccc3c(c2)[C@]2(C)CCO[C@@H]2N3C)c1 [Compound 6]
- CNS perm (PAMPA) [5]: 3.1
- IC50 (human nSMase2): 3.6 µM
- IC50 (Human AChE): 0.2 µM
- fraction unbound [8]: 0.04

SMILES: CN1c2ccc(OC(=O)Nc3ccc(OC(F)(F)F)cc3)cc2[C@]2(C)CCO[C@H]12 [Compound 4]
- CNS perm (PAMPA) [5]: 0.7
- IC50 (human nSMase2): 2.7 µM
- IC50 (Human AChE): > 5 µM
- fraction unbound [8]: 0.33

— patent US20230113944A1, “COMPOSITIONS AND METHODS FOR THE TREATMENT OF NEURODEGENERATIVE DISEASES” (priority 2020, published 2023)
